Patent publication US20030070184A1, “LIGANDS FOR DISCOIDIN DOMAIN RECEPTOR TYROSINE KINASES AND COMPLEXES THEREOF” (priority 1999, published 2003)
Where “and” joins values, the source holds several entries; their conditions need not be identical. Equal values may be shown once. Entries after “also recorded” stand apart in the source; their conditions may differ. Where a SMILES comes first, the peptide text is derived from it. [ ]: non-standard residue; d: D form. pY = N[C@@H](Cc1ccc(OP(=O)(O)O)cc1)C(=O)O

Columns and labels:
Shc PTB domain = target: T1, Shc PTB domain (Homo sapiens, UniProt P29353); experiment: Surface plasmon resonance competition: GST-Shc PTB domain binding to immobilized middle T antigen phosphopeptide; details: IC50, inhibition of binding of the Shc PTB domain to the middle T antigen phosphopeptide, BIAcore, soluble competing phosphopeptide
T1 construct: the PTB domain fusion construct comprises amino acids 1-225 of human p52 Shc; made in house; host or cells: E. coli
T1 sequence (P29353 1-225 isoform P29353-2): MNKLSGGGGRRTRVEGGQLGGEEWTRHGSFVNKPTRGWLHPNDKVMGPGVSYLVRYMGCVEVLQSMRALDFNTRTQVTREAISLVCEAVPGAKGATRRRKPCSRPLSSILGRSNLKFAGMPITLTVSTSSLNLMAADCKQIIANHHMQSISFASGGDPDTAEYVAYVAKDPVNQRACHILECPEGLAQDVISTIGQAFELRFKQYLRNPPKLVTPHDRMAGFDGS
Method: Surface plasmon resonance—experiments were done with a BIAcore instrument (Pharmacia). A phosphopeptide corresponding to the NPXY sequence in the polyomavirus middle T antigen (mT) (LSLLSNPTpYSVNSK) was absorbed to the surface of a biosensor chip. Binding of soluble GST-Shc PTB domain fusion protein to the mT peptide was measured in the presence or absence of competing soluble phosphopeptides based on the sequences around Tyr 513 of DDR1b or Tyr 490 of the NGFR (HIIENPQpYFSD) (21).
Experiments were done with a BIAcore instrument (Pharmacia). A phosphopeptide corresponding to the NPXY sequence in the polyomavirus middle T antigen (LSLLSNPTpYSVMRSK) was absorbed to the surface of a biosensor chip. Binding of soluble GST-Shc PTB domain fusion protein to the middle T peptide was measured in presence or absence of competing soluble phosphopeptides based on the sequences around tyrosine 513 of DDR1b (ALLLSNPApYRLLLA) or tyrosine 490 of the NGF receptor (HIIENPQpYFSD).

DDR receptors = experiment: Effect of other agents on DDR activity / collagen-induced DDR tyrosine phosphorylation; type: cell-based; details: for effect on DDR activity: collagen-associated molecules
DDR1b = target: T2, DDR1b (Homo sapiens, UniProt Q08345); experiment: Tyrosine phosphorylation of endogenous DDR1b in carcinoma cells (T-47D; A431), immunoprecipitation and anti-phosphotyrosine blot; type: cell-based; details: T-47D, 90 min; collagens/gelatin 10 μg/ml, orthovanadate 1 mM
T2 construct: endogenous in cells; host or cells: T-47D human mammary carcinoma cells (A431 also named)
T2 sequence (Q08345 19-913): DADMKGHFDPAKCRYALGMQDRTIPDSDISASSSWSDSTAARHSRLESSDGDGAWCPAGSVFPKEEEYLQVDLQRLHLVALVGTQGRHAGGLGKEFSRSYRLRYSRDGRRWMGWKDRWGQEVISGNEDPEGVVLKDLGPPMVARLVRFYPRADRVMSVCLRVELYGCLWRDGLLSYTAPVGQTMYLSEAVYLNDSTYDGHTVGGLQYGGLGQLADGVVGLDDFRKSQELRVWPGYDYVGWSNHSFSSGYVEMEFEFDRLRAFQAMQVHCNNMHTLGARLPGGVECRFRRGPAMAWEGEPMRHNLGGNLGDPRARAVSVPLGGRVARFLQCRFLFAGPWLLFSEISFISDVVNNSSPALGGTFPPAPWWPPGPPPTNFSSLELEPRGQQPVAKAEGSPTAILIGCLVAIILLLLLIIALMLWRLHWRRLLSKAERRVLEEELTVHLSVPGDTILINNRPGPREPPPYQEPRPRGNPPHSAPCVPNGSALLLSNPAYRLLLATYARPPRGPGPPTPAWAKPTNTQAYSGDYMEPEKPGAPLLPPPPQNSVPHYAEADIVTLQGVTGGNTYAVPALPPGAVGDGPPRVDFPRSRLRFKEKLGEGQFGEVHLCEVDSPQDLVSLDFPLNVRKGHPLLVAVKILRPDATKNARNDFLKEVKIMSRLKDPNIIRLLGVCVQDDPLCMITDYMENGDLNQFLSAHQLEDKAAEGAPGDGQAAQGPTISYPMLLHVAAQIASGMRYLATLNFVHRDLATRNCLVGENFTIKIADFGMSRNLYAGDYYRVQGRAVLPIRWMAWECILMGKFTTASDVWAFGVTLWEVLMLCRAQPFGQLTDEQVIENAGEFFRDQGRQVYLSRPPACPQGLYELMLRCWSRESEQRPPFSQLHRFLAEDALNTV
Source text: To investigate the effects of collagen on cells that express endogenous DDR tyrosine kinases, the mammary carcinoma cell line T-47D was employed. Previous results have shown that DDR1 is highly expressed in human carcinoma cell lines, in particular, the breast cancer cell lines BT-20, MDA-MB-175 and T-47D (1) (Perez et al., 1996). […] The time course of endogenous DDR1b tyrosine phosphorylation in T-47D cells was even slower than in 293 cells, with maximal activation being achieved only after stimulation for 18 hours.
To further investigate the role of different types of collagen in the activation of DDR1 and DDR2, collagen types I, II, III and V purified from human placenta and collagen type II from bovine tracheal cartilage were obtained. To test their ability to induce receptor tyrosine phosphorylation, 293 cells overexpressing DDR1 or DDR2 were employed. […] The various types of collagen were also tested for their ability to stimulate tyrosine phosphorylation of endogenous DDR1b present in T-47D cells. For this purpose, DDR1b was immunoprecipitated from lysates of stimulated T-47D cells and analyzed by Western blotting with anti-phosphotyrosine antibodies. […] As previously shown, DDR1 tyrosine phosphorylation could also be activated by treating cells with 1 mM orthovanadate, an inhibitor of tyrosine phosphatases. Furthermore, gelatin which contains heat denatured collagen was tested for its capacity to induce DDR1b tyrosine phosphorylation.
Integrins of the type α1β1 and α2β1 have long been known to be receptors for collagen. Therefore, tests were conducted to determine if these integrins are somehow involved in the activation of DDR1b. The mammary carcinoma cell line T-47D, which endogenously expresses the b-isoform of DDR1, was used. Monoclonal antibodies directed against the extracellular domains of integrins can block binding to collagen and therefore signaling of integrins. T-47D cells were treated with antibody A2-IIE10 against α2-integrin and antibody DE9 against β1-integrin (both from Upstate Biotechnology) in the absence or presence of 10 μg/ml collagen type I overnight. DDR1b or Shc were immunoprecipitated from cellular lysates and analyzed by Western blotting with antiphosphotyrosine antibody.
DDR1b and DDR2 were transfected into 293 cells and were stimulated with 10 µg/ml mouse collagen type I for different periods of time. (FIG. 9A and FIG. 9B) Total cellular lysates were probed with antiphosphotyrosine antibody. Maximal activation is seen 90 min after stimulation of DDR1b (FIG. 9A) and DDR2 (FIG. 9B). (FIG. 9C) Human mammary carcinoma T-47D cells were cultivated on 10 cm dishes to confluence and starved in 0.5% serum overnight. Cells were stimulated with collagen type I for various periods of time and lysed. DDR1b was immunoprecipitated from the lysates and analyzed by Western blotting with antiphosphotyrosine antibody. Maximal phosphorylation of DDR1b is seen after stimulation for 18 h. An unidentified, tyrosine phosphorylated protein with an apparent molecular weight of 115 kDa is copurified in the immunoprecipitations. […] Prolonged stimulation with collagen increases the processing of DDR1b in T-47D cells, indicated by an additional 62 kDa band. (FIGS. 9E and 9F) DDR1b was immunoprecipitated from overexpressing 293 cells (E) and T-47D (FIG. 9F) cells and subjected to an in vitro kinase reaction. The incorporation of [^32P]-phosphate is monitored by SDS-PAGE followed by autoradiograpy.

DDR2 = target: T3, DDR2 (Homo sapiens, UniProt Q16832); experiment: DDR2 tyrosine phosphorylation in transfected 293 cells (anti-phosphotyrosine Western blot); type: cell-based; details: 90 min; for ligand activity: induction of DDR2 tyrosine phosphorylation: soluble agent added to medium of transfected 293 cells, 10 μg/ml
T3 construct: expressed in transfected cells; host or cells: 293 cells, CMV-based expression vector
T3 sequence (Q16832 22-855): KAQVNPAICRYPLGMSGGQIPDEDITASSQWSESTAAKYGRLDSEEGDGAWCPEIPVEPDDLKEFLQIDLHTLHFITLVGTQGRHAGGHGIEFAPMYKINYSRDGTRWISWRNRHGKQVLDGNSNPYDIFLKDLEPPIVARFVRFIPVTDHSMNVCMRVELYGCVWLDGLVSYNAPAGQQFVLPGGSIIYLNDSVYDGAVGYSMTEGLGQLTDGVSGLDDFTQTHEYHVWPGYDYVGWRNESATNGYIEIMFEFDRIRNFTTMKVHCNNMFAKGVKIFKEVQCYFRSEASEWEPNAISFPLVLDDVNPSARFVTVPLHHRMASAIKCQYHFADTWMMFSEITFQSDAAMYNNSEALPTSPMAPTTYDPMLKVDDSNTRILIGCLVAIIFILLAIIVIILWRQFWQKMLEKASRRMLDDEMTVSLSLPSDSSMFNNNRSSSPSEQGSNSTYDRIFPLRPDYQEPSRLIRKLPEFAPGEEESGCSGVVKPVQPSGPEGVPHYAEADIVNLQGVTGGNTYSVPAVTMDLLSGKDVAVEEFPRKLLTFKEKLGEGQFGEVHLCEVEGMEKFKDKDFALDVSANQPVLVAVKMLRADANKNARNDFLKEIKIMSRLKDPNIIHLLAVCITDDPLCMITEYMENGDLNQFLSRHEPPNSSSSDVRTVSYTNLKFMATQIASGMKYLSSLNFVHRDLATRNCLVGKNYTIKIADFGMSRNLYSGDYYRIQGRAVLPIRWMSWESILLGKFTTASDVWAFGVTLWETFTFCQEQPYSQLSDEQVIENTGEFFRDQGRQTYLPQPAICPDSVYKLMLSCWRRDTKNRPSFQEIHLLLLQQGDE
Method: (§1) Semiconfluent 293 cells were transfected by calcium-phosphate precipitation with a cytomegalovirus-based expression vector. Sixteen hours later, cells were transferred to serum-free media for another 24 h. Cells were stimulated with 10 μg/ml collagen for 90 min and lysed with 1% Triton-X 100, 50 mM HEPES (pH 7.5), 150 mM NaCl, 1.5 mM MgCl2, 5 mM EGTA, 5 mM EDTA, 10% glycerol, 10 mM NaF, 1 mM phenylmethylsulfonyl fluoride (PMSF), 1 mM Na-orthovanadate, 10 μg/ml aprotinin. The cellular lysates were centrifuged 10 min at 4° C. and 13,000 rpm and aliquots of the supernatant were subjected to SDS-PAGE or further analyzed by immunoprecipitation with specific antibodies for 3 h at 4° C. on a rotating wheel. The immunocomplex was washed three times with 20 mM HEPES (pH 7.5), 150 mM NaCl, 0.1% Triton, 10% glycerol and analyzed by SDS-PAGE. Proteins were transferred to nitrocellulose membrane (Schleicher & Schuell) and immunoblotted with antibodies diluted 1:500 in 50 mM Tris (pH 7.5), 150 mM NaCl, 5 mM EDTA, 0.05% gelatin overnight. Western blots were developed using horseradish peroxidase-coupled secondary antibody (Biorad) and enhanced chemiluminescence (Amersham). For reprobing, the membrane was stripped in 70 mM Tris (pH 6.8), 2% SDS, 0.1% P-mercaptoethanol at 55° C. for 30 min. For in vitro kinase assays, immunoprecipitates were washed twice with in 40 mM HEPES (pH 7.5), 20 mM MgCl2, 2 mM MnCl2, 100 μM orthovanadate, 5 μM dATP and incubated with 5 μCi [γ-^32P] ATP at 30° C. for 20 min. The products of the kinase reaction were monitored by SDS-PAGE and autoradiography.

DDR1 = target: T4, DDR1 (Homo sapiens, UniProt Q08345); experiment: DDR1 tyrosine phosphorylation in transfected 293 cells (anti-phosphotyrosine Western blot); type: cell-based; details: 90 min; for ligand activity: induction of DDR1 (DDR1b) tyrosine phosphorylation: soluble agent added to medium of transfected 293 cells, 10 μg/ml
T4 construct: expressed in transfected cells; host or cells: human embryonic kidney 293 cells, CMV-based expression vector
T4 sequence (Q08345 19-913): as the sequence (Q08345 19-913) above
Method: as §1
To identify possible sources for the ligand of DDR1, an in vivo screening system was established. Human embryonic kidney fibroblast 293 cells were transiently transfected with expression plasmids coding for DDR1b. Growth-arrested cells were then stimulated with various agents and monitored for receptor activation by anti-phosphotyrosine Western blotting of total cellular lysates. […] The increase of DDR1b autophosphorylation was dependent on the concentration of matrigel added to the cells (FIG. 7A).

[1] = transfected 293 cells plated on collagen-coated dishes

## CC[C@H](C)[C@H](NC(=O)[C@@H](NC(=O)[C@@H](N)Cc1c[nH]cn1)[C@@H](C)CC)C(=O)N[C@@H](CCC(=O)O)C(=O)N[C@@H](CC(N)=O)C(=O)N1CCC[C@H]1C(=O)N[C@@H](CCC(N)=O)C(=O)N[C@@H](Cc1ccc(OP(=O)(O)O)cc1)C(=O)N[C@@H](Cc1ccccc1)C(=O)N[C@@H](CO)C(=O)N[C@@H](CC(=O)O)C(=O)O [NGF receptor phosphopeptide, HIIENPQpYFSD] (H-HIIENPQ[pY]FSD-OH; N-terminus and C-terminus assumed)
Shc PTB domain
  IC50: ~100 nM and 70 nM

## C[C@@H]1C[C@@H]([C@H](O)CC2CC(=O)NC(=O)C2)C(=O)[C@@H](C)C1 [cycloheximide, reference compound]
DDR receptors; treatment of cells, data not shown
  effect on ability of collagen to induce DDR tyrosine phosphorylation: not inhibited

## [O]=[V]([O-])([O-])[O-] [orthovanadate, reference compound]
DDR1b
  tyrosine phosphorylation of endogenous DDR1b in T-47D cells: activated

## chondroitin-sulphate A
DDR receptors
  effect on DDR activity: no effect

## collagen type II: collagen type II from bovine tracheal cartilage
DDR2
  ligand activity: induction of DDR2 tyrosine phosphorylation: moderate activity
DDR1b
  tyrosine phosphorylation of endogenous DDR1b in T-47D cells: lower, but still detectable

## collagen type III: collagen type III purified from human placenta
DDR1
  ligand activity: induction of DDR1 (DDR1b) tyrosine phosphorylation: equally good ligands
DDR1; [1]
  DDR1b tyrosine phosphorylation on immobilized collagen: further increased
DDR2
  ligand activity: induction of DDR2 tyrosine phosphorylation: highly potent ligands; also recorded: highly activated
DDR2; [1]
  DDR2 tyrosine phosphorylation on immobilized collagen: triggered
DDR1b
  tyrosine phosphorylation of endogenous DDR1b in T-47D cells: lower, but still detectable

## fibronectin
DDR1
  ligand activity: induction of DDR1 (DDR1b) tyrosine phosphorylation: neither

## gelatin
DDR1b
  tyrosine phosphorylation of endogenous DDR1b in T-47D cells: did not induce an increase

## heparin
DDR receptors
  effect on DDR activity: no effect

## laminin
DDR1
  ligand activity: induction of DDR1 (DDR1b) tyrosine phosphorylation: neither
